Literature values, collected in patent publication US8642009B2, “Diagnostic system for the detection of skin cancer” (priority 2005, dated 2014).
Like-named read-outs stand apart in the source and are kept apart here. Marks after values point to notes of the source that are not given here.

How the values were obtained:
[1] = tested on: OVCAR-3 ovarian carcinoma; conditions: OVCAR-3 tumour model, 120 min p.i.; for Tumour/blood: estimated from graphical presentations
[2] = tested on: CA20948 rat pancreatic tumour; conditions: CA20948 tumour model, 4 h p.i.
[3] = tested on: MDA-MB human breast cancer; conditions: MDA-MB tumour model, 120 min p.i.
M21 human melanoma = conditions: M21 tumour model, 120 min p.i.
αvβ3 = αvβ3 (Homo sapiens, UniProt P05106+P06756)
[4] = tested on: Osteo murine osteosarcoma; conditions: Osteo tumour model
U87MG human glioblastoma = conditions: U87MG tumour model
[5] = tested on: ACHN human renal adenocarcinoma; conditions: in vivo
[6] = tested on: DLD-1 human colon adenocarcinoma; conditions: DLD-1 tumour model, 60 min p.i.
[7] = 4 h p.i., estimated from graphical presentations

αvβ3, sequence (P06756 31-889 limits assumed): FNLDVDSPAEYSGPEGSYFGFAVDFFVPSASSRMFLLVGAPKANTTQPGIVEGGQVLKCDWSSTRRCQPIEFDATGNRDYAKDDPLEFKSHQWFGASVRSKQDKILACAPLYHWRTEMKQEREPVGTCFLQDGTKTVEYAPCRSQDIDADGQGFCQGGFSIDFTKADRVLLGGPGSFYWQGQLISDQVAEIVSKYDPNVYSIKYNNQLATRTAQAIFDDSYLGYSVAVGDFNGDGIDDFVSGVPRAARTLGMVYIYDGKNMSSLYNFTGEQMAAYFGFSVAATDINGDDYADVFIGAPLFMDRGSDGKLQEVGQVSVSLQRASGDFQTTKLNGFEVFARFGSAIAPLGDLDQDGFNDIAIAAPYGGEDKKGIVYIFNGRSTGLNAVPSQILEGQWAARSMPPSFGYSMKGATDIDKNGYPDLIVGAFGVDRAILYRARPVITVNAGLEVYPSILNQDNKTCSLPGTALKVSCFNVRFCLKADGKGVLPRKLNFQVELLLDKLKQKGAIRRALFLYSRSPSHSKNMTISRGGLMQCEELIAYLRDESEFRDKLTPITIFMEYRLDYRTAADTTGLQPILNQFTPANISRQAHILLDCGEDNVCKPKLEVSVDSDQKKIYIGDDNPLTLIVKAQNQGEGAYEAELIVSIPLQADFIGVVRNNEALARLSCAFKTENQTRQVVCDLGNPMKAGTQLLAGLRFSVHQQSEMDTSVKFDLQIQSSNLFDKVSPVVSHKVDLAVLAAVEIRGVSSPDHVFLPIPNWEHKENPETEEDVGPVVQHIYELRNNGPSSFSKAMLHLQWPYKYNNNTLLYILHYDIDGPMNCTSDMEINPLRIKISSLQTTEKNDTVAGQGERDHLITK
αvβ3, sequence (P06756 891-1048 partner limits assumed): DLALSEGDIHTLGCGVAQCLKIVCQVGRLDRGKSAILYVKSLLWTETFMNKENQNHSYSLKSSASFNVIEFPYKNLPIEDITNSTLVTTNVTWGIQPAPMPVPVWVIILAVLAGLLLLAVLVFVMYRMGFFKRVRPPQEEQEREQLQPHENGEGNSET
αvβ3, sequence (P05106 27-788): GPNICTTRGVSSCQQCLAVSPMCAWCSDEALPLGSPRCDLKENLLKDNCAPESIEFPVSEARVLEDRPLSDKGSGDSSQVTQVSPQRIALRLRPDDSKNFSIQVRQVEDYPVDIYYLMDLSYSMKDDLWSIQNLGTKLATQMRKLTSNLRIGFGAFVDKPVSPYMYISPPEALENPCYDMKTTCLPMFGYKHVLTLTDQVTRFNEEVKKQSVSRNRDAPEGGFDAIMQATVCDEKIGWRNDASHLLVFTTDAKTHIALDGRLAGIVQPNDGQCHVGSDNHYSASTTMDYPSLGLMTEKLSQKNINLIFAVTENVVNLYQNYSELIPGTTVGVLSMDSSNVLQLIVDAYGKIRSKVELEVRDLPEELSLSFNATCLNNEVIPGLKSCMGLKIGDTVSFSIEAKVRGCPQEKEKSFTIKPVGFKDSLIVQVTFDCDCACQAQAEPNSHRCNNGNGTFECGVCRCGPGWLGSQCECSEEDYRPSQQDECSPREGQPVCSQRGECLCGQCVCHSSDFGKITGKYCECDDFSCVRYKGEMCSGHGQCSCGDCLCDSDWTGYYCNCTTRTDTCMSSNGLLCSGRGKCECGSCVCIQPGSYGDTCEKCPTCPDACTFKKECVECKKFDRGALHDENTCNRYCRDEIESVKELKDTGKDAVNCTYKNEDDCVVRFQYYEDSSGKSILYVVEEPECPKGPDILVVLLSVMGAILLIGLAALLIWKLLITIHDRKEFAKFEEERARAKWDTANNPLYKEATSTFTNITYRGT

In the case of HYNIC-E-[c(RGDfK])2, the Tumour uptake [1] is given as 5.8 ± 0.5^b % ID/g and the Tumour/blood [1] is given as 10^g ^.

For DTPA-RGD, the Tumour uptake [2] is given as 0.1 ± 0.02^d % ID/g, the Tumour/blood [2] is given as 9.2 and the Tumour/muscle [2] is given as 7.9.

For FP-E-c(RGDyK)2, the Tumour uptake [3] is given as 4^b,g % ID/g.

In the case of (c(RGDfE)HEG)2-K-Dpr, the Tumour uptake (M21 human melanoma) is listed as 1.6 ± 0.1^b % ID/g, the Tumour/blood (M21 human melanoma) is listed as 12.4 and the Tumour/muscle (M21 human melanoma) is listed as 14.2. For the same substance, the IC50 (αvβ3) was 3 nM.

In the case of c(RGDyK), the Tumour uptake [3] is listed as 3.0 ± 0.1^b % ID/g, the Tumour/blood [3] is listed as 20.2 and the Tumour/muscle [3] is listed as 4.7.

For c(RGDfY), the Tumour uptake ([4]; 60 min p.i.) is listed as 0.4 ± 0.1^c % ID/g, the Tumour/blood ([4]; 60 min p.i.) is listed as 1.1 and the Tumour/muscle ([4]; 60 min p.i.) is listed as 2.7. For the same substance, the IC50 (αvβ3) was 40 nM.

For DOTA-PEG-c(RGDyK), the Tumour uptake (U87MG human glioblastoma; 4 h p.i.) is given as 1.6 ± 0.2^d % ID/g, the Tumour/blood (U87MG human glioblastoma; [7]) is given as 80^g ^ and the Tumour/muscle (U87MG human glioblastoma; [7]) is given as 16^g ^.

In the case of DOTA-E-[c(RGDfK])2, the Tumour uptake [1] is listed as 7.5 ± 1.5^b % ID/g and the Tumour/blood [1] is listed as 40^g ^.

In the case of FP-PEG-c(RGDyK), the Tumour uptake (U87MG human glioblastoma; 120 min p.i.) is given as 2.6 ± 0.1^b % ID/g, the Tumour/blood (U87MG human glioblastoma; 120 min p.i.) is given as 18.4 and the Tumour/muscle (U87MG human glioblastoma; 120 min p.i.) is given as 25.6.

For DOTA-c(RGDyK), the Tumour uptake [3] is given as 1.4 ± 0.1^b % ID/g, the Tumour/blood [3] is given as 6.9 and the Tumour/muscle [3] is given as 6.

In the case of ((c(RGDfE)HEG)2-K)2-Dpr, the Tumour uptake (M21 human melanoma) is given as 1.7 ± 0.1^b % ID/g, the Tumour/blood (M21 human melanoma) is given as 21.3 and the Tumour/muscle (M21 human melanoma) is given as 23.1. The IC50 (αvβ3) was 0.2 nM.

For c(RGDy V), the Tumour uptake ([4]; 120 min p.i.) is listed as 1.5 ± 0.2^b % ID/g, the Tumour/blood ([4]; 120 min p.i.) is listed as 8.6 and the Tumour/muscle ([4]; 120 min p.i.) is listed as 4.9. For the same substance, the IC50 (αvβ3) was 10 nM.

In the case of DKCK-RGD, the Tumour uptake (M21 human melanoma) is given as 1.1 ± 0.1^b % ID/g, the Tumour/blood (M21 human melanoma) is given as 9.7 and the Tumour/muscle (M21 human melanoma) is given as 8.1.

For RGD, the Tumour uptake (M21 human melanoma) is listed as 1.8 ± 0.3^b % ID/g, the Tumour/blood (M21 human melanoma) is listed as 7.9 and the Tumour/muscle (M21 human melanoma) is listed as 6.2. The IC50 (αvβ3) was 40 nM.

For DOTA-RGD, the Tumour uptake ([4]; 60 min p.i.) is given as 1.1 ± 0.04^c % ID/g, the Tumour/blood ([4]; 60 min p.i.) is given as 11.8 and the Tumour/muscle ([4]; 60 min p.i.) is given as 2.8.

For FB-c(RGDyK), the Tumour uptake [3] is given as 1.0 ± 0.3^b % ID/g, the Tumour/blood [3] is given as 12.2 and the Tumour/muscle [3] is given as 5.8.

In the case of RGD-4C, the Tumour/blood [5] is listed as 1.6 and the Tumour/muscle [5] is listed as 2.6.

In the case of c(RGDfMe V), the Tumour uptake [6] is given as 0.9 ± 0.1^c % ID/g, the Tumour/blood [6] is given as 5.2 and the Tumour/muscle [6] is given as 2.7.

For c(RGDfE)HEG-Dpr, the Tumour uptake (M21 human melanoma) is listed as 0.5 ± 0.1^b % ID/g, the Tumour/blood (M21 human melanoma) is listed as 12.4 and the Tumour/muscle (M21 human melanoma) is listed as 13.2. For the same substance, the IC50 (αvβ3; IC50 value for the corresponding compound) was 20 nM.

In the case of mPEG-c(RGDyK), the Tumour uptake (U87MG human glioblastoma; 120 min p.i.) is given as 5.1 ± 0.3^b % ID/g and the Tumour/blood (U87MG human glioblastoma; 120 min p.i.) is given as 85.

In the case of DOTA-E[E-c(RGDyK)z]2, the Tumour uptake (U87MG human glioblastoma; 120 min p.i.) is given as 7.6 ± 0.6^b % ID/g.
